# From the CATMoS acute toxicity set (Mansouri et al. 2021)
# Assay: GHS categories as the set defines them, by LD50: 1 up to 5, 2 up to 50, 3 up to 300, 4 up to 2000, 5 above 2000 mg/kg
# Settings: rat; in vivo; po
# Text: […]The data set underlying the modeling effort for this project was initially compiled by NICEATM and U.S. EPA’s CCTE. Briefly, LD50 data were collected from rat acute oral systemic toxicity tests, including limit tests, ranges/confidence intervals, and discrete LD50 values. The full data set included 21,200 LD50 entries for 15,688 substances. […] Data were reviewed to ensure that LD50 values with obvious errors in the extracted data such as unit conversion errors (e.g., comma and decimal separator misplacements) were either fixed or removed. After this review, 16,209 LD50 values remained. Many of the chemicals represented had multiple LD50 entries, requiring that a single representative value per Chemical Abstracts Service Registry Number (CASRN) identifier be defined to facilitate modeling efforts. Based on ATWG feedback and to define the representative LD50 as a protective value while accounting for the distribution across multiple LD50s, the median of the lowest quartile was computed using only discrete LD50 values (omitting limit test data and range and confidence interval data). A detailed summary of the data compilation is available online on the NICEATM webpage dedicated to the collaborative modeling project (NTP 2020).
# […][…] For categorical designations, limit test and range/confidence interval LD50 data were integrated wherever possible. As such, the number of chemicals with end point values/calls varies across the modeling end points (Table 3) based on whether chemicals had representative LD50 values and/or other data. If a chemical had both, the representative value was used to determine categorical calls rather than limit test data. Some data were useable only for certain end points and categories depending on the thresholds. For example, ranges that spanned multiple hazard categories were considered only for the binary (very toxic/nontoxic) end points and omitted from rendering a determination for hazard category assignment.
# […]The final data set comprising 11,992 chemicals was split into training and evaluation sets […], respectively. This process was performed semirandomly by ordering chemicals based on the five end points (categorical and continuous LD50 values) and partitioning every fourth record into the evaluation set accordingly. This approach was taken to ensure an equivalent distribution of the LD50 values and the different hazard categories between the training and the evaluation sets without supervised sampling of the chemicals based on structures (Figure 1A). The sources of the chemical structures were also kept equivalent between the two sets, with chemical structures obtained from DSSTox, being the highest quality, representing over 75% of each set (Figure 1B).
row,SMILES,GHS category
1,NS(=O)(=O)c1cc(C2(O)NC(=O)c3ccccc32)ccc1Cl (centres undefined),5
2,O=C(Cn1cnnn1)N[C@@H]1C(=O)N2C(C(=O)O)=C(CSc3nncs3)CS[C@H]12,5
3,C#CCON=CC1=CCCN(C)C1,3
4,C=C(OCC)C1C(C)(C)CC(=O)CC1(C)C,5
5,CC(C)Cc1ccc(OP(=O)(Oc2ccc(CC(C)C)cc2)Oc2ccc(CC(C)C)cc2)cc1,5
6,CC(=O)Nc1c(I)c(NC(C)=O)c(I)c(C(=O)O)c1I,5
7,CCC1COC(Cn2ccnc2)(c2cc3cc(Cl)cc(Cl)c3o2)O1 (centres undefined),4
8,OC1(c2ccccc2)c2c(Cl)cccc2C2=NCCN21 (centres undefined),4
9,CCOCCN(Cc1ccc(Oc2ccc([N+](=O)[O-])cc2)cc1)C(=O)C(Cl)Cl,5
10,O=S(=O)(O)c1cc(O)ccc1O,5
11,CCCCCCCc1ccc(O)cc1,5
12,C[C@@H]1CN(c2c(F)c(N)c3c(=O)c(C(=O)O)cn(C4CC4)c3c2F)C[C@H](C)N1 (racemic),5
13,COCCCCC(=O)c1ccc(C(F)(F)F)cc1,5
14,C[N+](C)(C)CC(O)CC(=O)[O-] (centres undefined),5
15,C=C(C)CC1CCCCCCCCCCC1=O (centres undefined),5
16,COC(=O)C1=C(C)NC(COC(N)=O)=C(C(=O)OC(C)C)C1c1cccc(Cl)c1Cl (centres undefined),5
17,CC(C)(C)C1CCC(C2=C(O)c3ccccc3C(=O)C2=O)CC1 (centres undefined),5
18,CCN(CC)C(=O)CCSCc1nnnn1C,4
19,CC(C)=C1CC[C@H](C)C2=C(C1)[C@@H](C)CC2,5
20,CCCCCCCCCCCCCCCCCC(=O)NP(=O)(OC)SC (centres undefined),3
21,O=C1NC(=O)C(c2ccccc2)(c2ccc(O)cc2)N1 (centres undefined),5
22,NS(=O)(=O)c1cc2c(cc1Cl)NC(C1CC3C=CC1C3)NS2(=O)=O (centres undefined),5
23,CCCCCCCCCCCCCCC(C)c1cc(C)cc(C)c1O (centres undefined),5
24,N[C@@H]1CONC1=O,5
25,CC(C)C[C@H](N)C(=O)O,5

row,SMILES,GHS category
1,N[C@H](C(=O)O)c1ccc(O)cc1,5
2,O=C(O)CN(CCCN(C(=O)O)C(=O)O)C(=O)O,5
3,Cn1nnnc1SCCCSc1ccncc1,4
4,Cc1cc2nc3c(=O)[nH]c(=O)nc-3n(C[C@H](O)[C@H](O)[C@H](O)CO)c2cc1C,5
5,NS(=O)(=O)c1ccccc1C(F)(F)F,4
6,CCCC(=O)c1ccc2c(c1)OC(C)(C)C(=O)N2,5
7,CC(CCC(=O)O)C(=O)O (centres undefined),4
8,NNC(=O)CCCCC(=O)NN,5
9,CC(=O)N(CC(O)CO)c1c(I)c(C(=O)NCC(O)CO)c(I)c(C(=O)NCC(O)CO)c1I (centres undefined),5
10,CC(CC=O)c1ccccc1 (centres undefined),5
11,Cc1c(C#N)sc(N)c1C#N,4
12,CC(C)(C)c1cc(CCC(=O)OCC(COC(=O)CCc2cc(C(C)(C)C)c(O)c(C(C)(C)C)c2)(COC(=O)CCc2cc(C(C)(C)C)c(O)c(C(C)(C)C)c2)COC(=O)CCc2cc(C(C)(C)C)c(O)c(C(C)(C)C)c2)cc(C(C)(C)C)c1O,5
13,O=C1OC(=O)c2c(Cl)c(Cl)c(Cl)c(Cl)c21,5
14,Fc1ccc(Oc2ccnc3cc(Cl)cc(Cl)c23)cc1,5
15,OC1CCC(CN2CCC(=C3c4ccc(F)cc4Sc4ccc(C(F)(F)F)cc43)CC2)CC1 (centres undefined),3
16,NC(=O)N(CO)CO,5
17,CCCCCCCCCCCC(=O)OOC(=O)CCCCCCCCCCC,5
18,Cc1cc(Cl)ccc1-n1c(C)nc2cccc(Cl)c2c1=O,5
19,Cc1cccc(OC(=O)c2ccc(Cl)cc2OC(N)=O)c1,5
20,CCOc1cc(C)c2[nH]c(=O)sc2c1,5
21,CCOCc1nc(=O)c2nccnc2[nH]1,5
22,COC(=O)/C=C(/C)N[C@@H](C(=O)O)c1ccc(O)cc1,5
23,C=C(C)C(=O)O[Si](C(C)C)(C(C)C)C(C)C,5
24,Brc1cnc2[nH]ccc2c1,5
